From patent US20110038948A1, “Methods of Reducing the Production of Reactive Oxygen Species and Methods of Screening or Identifying Compounds and Compositions that Reduce the Production of Reactive Oxygen Species” (UNIVERSITY OF TENNESSEE RESEARCH FOUNDATION, priority 2005, published 2011)

How the values were obtained:
Assay type in all cases: cell-based, mouse
IL-6 = IL-6 expression in 3T3-L1 adipocytes
Method: 3T3-L1 pre-adipocytes were incubated at a density of 8000 cells/cm^2 (10 cm^2 dish) and grown in Dulbecco's modified Eagle's medium (DMEM) containing 10% FBS and antibiotics (adipocyte medium) at 37° C. in 5% CO2 in air. Confluent pre-adipocytes were induced to differentiate with a standard differentiation medium consisting of DMEM-F10 (1:1, vol/vol) medium supplemented with 1% fetal bovine serum (FBS), 1 μM dexamethasone, isobutylmethylxanthine (IBMX) (0.5 mM) and antibiotics (1% Penicillin-Streptomycin). Pre-adipocytes were maintained in this differentiation medium for 3 days and subsequently cultured in adipocyte medium. Cultures were re-fed every 2-3 days to allow 90% cells to reach fully differentiation before conducting chemical treatment.
Cells were incubated in serum free medium overnight before chemical treatment. Chemicals were freshly diluted in adipocyte medium before treatment. […] Cell viability was measured via trypan blue exclusion.
Adipocyte and muscle 18s, TNFα, IL-6, IL-8, IL-15 and adiponectin were quantitatively measured using a smart cycler real-time PCR system (Cepheid, Sunnyvale, Calif.) with a TaqMan 1000 Core Reagent Kit (Applied Biosystems, Branchburg, N.J.). […] Reactions of quantitative RT-PCR for standards and unknown samples were also performed according to the instructions of Smart Cycler System (Cepheid, Sunnyvale, Calif.) and TaqMan Real Time PCR Core Kit (Applied Biosystems, Branchburg, N.J.). The mRNA quantitation for each sample was further normalized using the corresponding 18s quantitation. […]
Adipocyte and muscle 18s, CD14, TNFα, MIP, M-CSF, IL-6 and MCP-1 were quantitatively measured using a Smart Cycler Real Time PCR System (Cepheid, Sunnyvale, Calif.) with a TaqMan 1000 Core Reagent Kit (Applied Biosystems, Branchburg, N.J.). […] Reactions of quantitative RT-PCR for standards and unknown samples were also performed according to the instructions of Smart Cycler System (Cepheid, Sunnyvale, Calif.) and TaqMan Real Time PCR Core Kit (Applied Biosystems, Branchburg, N.J.). […]

3T3-L1 adipocytes = test: Cell proliferation / DNA synthesis in cultured adipocytes (CyQUANT); settings: 48 hours
Method: 3T3-L1 preadipocytes were incubated at a density of 8000 cells/cm^2 (10 cm^2 dish) and grown in Dulbecco's modified Eagle's medium (DMEM) containing 10% FBS and antibiotics (adipocyte medium) at 37° C. in 5% CO2 in air. Confluent preadipocytes were induced to differentiate with a standard differentiation medium consisting of DMEM-F10 (1:1, vol/vol) medium supplemented with 1% FBS, 1 μM dexamethasone, IBMX (0.5 mM) and antibiotics (1% Penicillin-Streptomycin). Preadipocytes were maintained in this differentiation medium for 3 days and subsequently cultured in adipocyte medium. Cultures were re-fed every 2-3 days to allow 90% of cells to reach full differentiation before conducting chemical treatment. Chemicals were freshly diluted in adipocyte medium before treatment. Cells were washed with fresh adipocyte medium, re-fed with medium containing the different treatments, and incubated at 37° C. in 5% CO2 in air before analysis. Cell viability was measured via trypan blue exclusion. Cells were plated in DMEM with different treatment in duplicate in 96-well plates. After 48 h, a CyQUANT Cell Proliferation Kit (Molecular Probes, Eugene, Oreg.) was used following the manufacturer's protocol. a microplate fluorometer (Packard Instrument Company, Inc., Downers Grove, Ill.) was used to measure CyQUANT fluorescence. Cell viability was determined by Trypan blue exclusion examination.

NADPH oxidase = NADPH oxidase expression in cultured adipocytes; settings: glucose 30 mmol/L alone or plus compound, 48 hours
Method: 3T3-L1 preadipocytes were incubated at a density of 8000 cells/cm^2 (10 cm^2 dish) and grown in Dulbecco's modified Eagle's medium (DMEM) containing 10% FBS and antibiotics (adipocyte medium) at 37° C. in 5% CO2 in air. Confluent preadipocytes were induced to differentiate with a standard differentiation medium consisting of DMEM-F10 (1:1, vol/vol) medium supplemented with 1% FBS, 1 μM dexamethasone, IBMX (0.5 mM) and antibiotics (1% Penicillin-Streptomycin). Preadipocytes were maintained in this differentiation medium for 3 days and subsequently cultured in adipocyte medium. Cultures were re-fed every 2-3 days to allow 90% of cells to reach full differentiation before conducting chemical treatment. Chemicals were freshly diluted in adipocyte medium before treatment. Cells were washed with fresh adipocyte medium, re-fed with medium containing the different treatments, and incubated at 37° C. in 5% CO2 in air before analysis. Cell viability was measured via trypan blue exclusion. Adipocyte 18s, cyclin A, NADPH oxidase, and UCP2 were quantitatively measured using a Smart Cycler Real Time PCR System (Cepheid, Sunnyvale, Calif.) with a TaqMan 1000 Core Reagent Kit (Applied Biosystems, Branchburg, N.J.). The primers and probe sets were ordered from Applied Biosystems TaqMan® Assays-on-Demand™ Gene Expression primers and probe set collection according to manufacture's instruction. Pooled adipocyte total RNA was serial-diluted in the range of 1.5625-25 ng and used to establish a standard curve; total RNAs for unknown samples were also diluted in this range. Reactions of quantitative RT-PCR for standards and unknown samples were also performed according to the instructions of Smart Cycler System (Cepheid, Sunnyvale, Calif.) and TaqMan Real Time PCR Core Kit (Applied Biosystems, Branchburg, N.J.). The mRNA quantitation for each sample was further normalized using the corresponding 18s quantitation.

Row | effect on NADPH oxidase expression (NADPH oxidase) | SMILES | increase in IL-6 expression (IL-6; 100 nmol/L H2O2, 48 h, p<0.001) | increase in total DNA of cultured cells (3T3-L1 adipocytes; H2O2 100 nmol/L, p<0.001) | effect on IL-6 expression (IL-6; 10 nmol/L 1α, 25-(OH)2-D3, 48 h) | effect on IL-6 expression (IL-6; calcitriol 10 nmol/L, 48 hours (Example 4)) | effect on glucose induced DNA synthesis (3T3-L1 adipocytes; compound plus glucose 30 mmol/L)
1 | – | OO [H2O2, hydrogen peroxide] | 167% | 39% | – | – | –
2 | stimulated | C=C1/C(=C\C=C2/CCC[C@]3(C)[C@@H]([C@H](C)CCCC(C)(C)O)CC[C@@H]23)C[C@@H](O)C[C@@H]1O [calcitriol, 1,25-(OH)2-D3] | – | – | markedly increased | markedly stimulate | augmented
